Data: patent US10231954B2, “Neurodegenerative therapies” (LYTIX BIOPHARMA AS, priority 2014, dated 2019)

Columns and labels:
Type in all cases: biochemical
ERK2 = ERK2 (Homo sapiens, UniProt P28482); assay: Kinase profiling ERK2; settings: 100 micromolar inhibitor concentration, 100 is no change; for remaining activity at 100 µM: read-out: residual kinase activity, ERK2
From the text: (§1) Any value less that 25 is considered to be highly significant inhibition.

JNK1 = JNK1 (Homo sapiens, UniProt P45983); assay: Kinase profiling JNK1; settings: 100 micromolar inhibitor concentration, 100 is no change; for remaining activity at 100 µM: read-out: residual kinase activity, JNK1
From the text: as §1

JNK3 = JNK3 (Homo sapiens, UniProt P53779); assay: Kinase profiling JNK3; settings: 100 micromolar inhibitor concentration, 100 is no change; for remaining activity at 100 µM: read-out: residual kinase activity, JNK3
From the text: as §1

p38b MAPK = p38b MAPK (Homo sapiens, UniProt Q15759); assay: Kinase profiling p38b MAPK; settings: 100 micromolar inhibitor concentration, 100 is no change; for remaining activity at 100 µM: read-out: residual kinase activity, p38b MAPK
From the text: as §1

RSK2 = RSK2 (Homo sapiens, UniProt P51812); assay: Kinase profiling RSK2; settings: 100 micromolar inhibitor concentration, 100 is no change; for remaining activity at 100 µM: read-out: residual kinase activity, RSK2
From the text: as §1

ROCK 2 = ROCK 2 (Homo sapiens, UniProt O75116); assay: Kinase profiling ROCK 2; settings: 100 micromolar inhibitor concentration, 100 is no change; for remaining activity at 100 µM: read-out: residual kinase activity, ROCK 2
From the text: as §1

PKCa = PKCa (Homo sapiens, UniProt P17252); assay: Kinase profiling PKCa; settings: 100 micromolar inhibitor concentration, 100 is no change; for remaining activity at 100 µM: read-out: residual kinase activity, PKCa
From the text: as §1

PKD1 = molecular target: T1, PKD1 (Homo sapiens, UniProt Q15139); assay: Kinase profiling PKD1; settings: 100 micromolar inhibitor concentration, 100 is no change; for remaining activity at 100 µM: read-out: residual kinase activity, PKD1
T1 sequence (Q15139 1-912): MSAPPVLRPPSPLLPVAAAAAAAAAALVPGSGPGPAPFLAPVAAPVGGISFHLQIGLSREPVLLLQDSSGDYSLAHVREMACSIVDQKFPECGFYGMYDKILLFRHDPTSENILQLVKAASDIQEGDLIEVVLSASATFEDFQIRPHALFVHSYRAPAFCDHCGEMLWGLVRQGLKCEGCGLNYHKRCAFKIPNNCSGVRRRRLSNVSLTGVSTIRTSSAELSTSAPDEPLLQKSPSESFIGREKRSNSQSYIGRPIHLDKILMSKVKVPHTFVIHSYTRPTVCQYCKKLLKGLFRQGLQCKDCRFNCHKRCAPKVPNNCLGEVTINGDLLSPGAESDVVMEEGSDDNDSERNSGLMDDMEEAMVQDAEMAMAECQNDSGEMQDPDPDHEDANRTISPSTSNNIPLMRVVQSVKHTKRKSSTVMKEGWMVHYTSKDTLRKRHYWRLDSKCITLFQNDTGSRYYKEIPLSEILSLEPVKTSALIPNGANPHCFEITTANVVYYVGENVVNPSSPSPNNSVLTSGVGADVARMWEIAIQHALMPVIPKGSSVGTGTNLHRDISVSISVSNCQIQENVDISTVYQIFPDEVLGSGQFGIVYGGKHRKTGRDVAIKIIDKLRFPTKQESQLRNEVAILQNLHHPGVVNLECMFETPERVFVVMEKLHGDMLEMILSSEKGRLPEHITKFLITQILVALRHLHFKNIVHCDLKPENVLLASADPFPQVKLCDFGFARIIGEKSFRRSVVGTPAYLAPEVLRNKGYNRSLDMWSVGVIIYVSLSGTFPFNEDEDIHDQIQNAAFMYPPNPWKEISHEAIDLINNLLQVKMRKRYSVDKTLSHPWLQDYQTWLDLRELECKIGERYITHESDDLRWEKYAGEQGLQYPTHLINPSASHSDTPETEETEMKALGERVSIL
From the text: as §1

LKB1 = molecular target: T2, LKB1 (Homo sapiens, UniProt Q15831); assay: Kinase profiling LKB1; settings: 100 micromolar inhibitor concentration, 100 is no change; for remaining activity at 100 µM: read-out: residual kinase activity, LKB1
T2 sequence (Q15831 1-433): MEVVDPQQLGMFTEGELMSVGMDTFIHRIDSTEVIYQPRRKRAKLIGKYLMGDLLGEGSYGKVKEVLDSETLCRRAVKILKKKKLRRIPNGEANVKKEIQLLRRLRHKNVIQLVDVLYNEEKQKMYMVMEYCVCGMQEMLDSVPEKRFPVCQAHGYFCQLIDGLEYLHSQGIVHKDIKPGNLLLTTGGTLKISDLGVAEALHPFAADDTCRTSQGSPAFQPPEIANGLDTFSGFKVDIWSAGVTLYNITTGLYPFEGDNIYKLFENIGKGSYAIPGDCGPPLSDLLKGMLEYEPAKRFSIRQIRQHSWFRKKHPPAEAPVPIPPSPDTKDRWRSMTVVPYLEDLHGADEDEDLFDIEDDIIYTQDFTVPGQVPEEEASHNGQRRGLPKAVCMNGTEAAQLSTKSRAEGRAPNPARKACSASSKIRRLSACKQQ
T2 sequence (Q7RTN6 1-431 partner): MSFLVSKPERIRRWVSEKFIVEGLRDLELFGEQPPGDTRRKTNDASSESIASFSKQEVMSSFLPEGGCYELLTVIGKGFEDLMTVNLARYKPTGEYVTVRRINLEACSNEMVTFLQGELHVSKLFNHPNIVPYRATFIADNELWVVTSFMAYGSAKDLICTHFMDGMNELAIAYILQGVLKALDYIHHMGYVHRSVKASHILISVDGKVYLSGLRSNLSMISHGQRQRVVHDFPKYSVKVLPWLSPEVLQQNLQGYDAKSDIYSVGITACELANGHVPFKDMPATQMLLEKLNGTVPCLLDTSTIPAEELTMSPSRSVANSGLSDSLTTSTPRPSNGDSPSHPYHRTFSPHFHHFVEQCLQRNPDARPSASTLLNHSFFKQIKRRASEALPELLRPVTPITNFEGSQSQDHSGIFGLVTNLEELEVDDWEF
T2 sequence (Q9Y376 1-341 partner): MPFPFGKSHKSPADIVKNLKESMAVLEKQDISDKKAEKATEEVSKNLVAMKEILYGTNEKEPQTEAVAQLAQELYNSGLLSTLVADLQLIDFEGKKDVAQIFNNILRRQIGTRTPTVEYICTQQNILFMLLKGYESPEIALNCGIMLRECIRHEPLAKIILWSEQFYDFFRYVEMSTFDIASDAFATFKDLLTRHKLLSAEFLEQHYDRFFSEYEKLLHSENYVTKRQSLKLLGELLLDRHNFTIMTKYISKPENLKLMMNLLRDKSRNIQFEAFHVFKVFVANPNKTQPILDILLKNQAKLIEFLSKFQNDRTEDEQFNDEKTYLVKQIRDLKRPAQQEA
From the text: as §1

CK2 = assay: Kinase profiling CK2; settings: 100 micromolar inhibitor concentration; 100 is no change
From the text: as §1

NEK6 = NEK6 (Homo sapiens, UniProt Q9HC98); assay: Kinase profiling NEK6; settings: 100 micromolar inhibitor concentration, 100 is no change; for remaining activity at 100 µM: read-out: residual kinase activity, NEK6
From the text: as §1

PIM1 = PIM1 (Homo sapiens, UniProt P11309); assay: Kinase profiling PIM1; settings: 100 micromolar inhibitor concentration, 100 is no change; for remaining activity at 100 µM: read-out: residual kinase activity, PIM1
From the text: as §1

PAK4 = PAK4 (Homo sapiens, UniProt O96013); assay: Kinase profiling PAK4; settings: 100 micromolar inhibitor concentration, 100 is no change; for remaining activity at 100 µM: read-out: residual kinase activity, PAK4
From the text: as §1

Chain of p38b MAPK (Q15759 whole entry): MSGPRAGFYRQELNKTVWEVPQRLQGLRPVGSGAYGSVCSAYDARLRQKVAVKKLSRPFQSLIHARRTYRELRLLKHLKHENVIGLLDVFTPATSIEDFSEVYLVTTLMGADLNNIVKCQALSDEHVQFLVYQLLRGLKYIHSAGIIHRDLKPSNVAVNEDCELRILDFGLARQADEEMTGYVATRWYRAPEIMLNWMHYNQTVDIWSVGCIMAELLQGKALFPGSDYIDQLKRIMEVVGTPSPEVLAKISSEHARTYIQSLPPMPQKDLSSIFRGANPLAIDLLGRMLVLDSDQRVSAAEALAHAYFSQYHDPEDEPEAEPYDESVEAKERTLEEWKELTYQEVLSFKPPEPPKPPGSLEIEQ
Chain of NEK6 (Q9HC98 whole entry, species assumed): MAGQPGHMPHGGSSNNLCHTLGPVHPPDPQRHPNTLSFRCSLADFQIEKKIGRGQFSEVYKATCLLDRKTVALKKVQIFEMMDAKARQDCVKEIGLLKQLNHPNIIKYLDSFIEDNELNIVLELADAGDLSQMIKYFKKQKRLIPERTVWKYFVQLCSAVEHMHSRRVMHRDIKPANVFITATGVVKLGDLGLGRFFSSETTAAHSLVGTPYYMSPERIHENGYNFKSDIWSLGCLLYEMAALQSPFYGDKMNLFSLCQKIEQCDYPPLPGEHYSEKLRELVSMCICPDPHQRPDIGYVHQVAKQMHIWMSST
Chain of JNK3 (P53779 whole entry, species assumed): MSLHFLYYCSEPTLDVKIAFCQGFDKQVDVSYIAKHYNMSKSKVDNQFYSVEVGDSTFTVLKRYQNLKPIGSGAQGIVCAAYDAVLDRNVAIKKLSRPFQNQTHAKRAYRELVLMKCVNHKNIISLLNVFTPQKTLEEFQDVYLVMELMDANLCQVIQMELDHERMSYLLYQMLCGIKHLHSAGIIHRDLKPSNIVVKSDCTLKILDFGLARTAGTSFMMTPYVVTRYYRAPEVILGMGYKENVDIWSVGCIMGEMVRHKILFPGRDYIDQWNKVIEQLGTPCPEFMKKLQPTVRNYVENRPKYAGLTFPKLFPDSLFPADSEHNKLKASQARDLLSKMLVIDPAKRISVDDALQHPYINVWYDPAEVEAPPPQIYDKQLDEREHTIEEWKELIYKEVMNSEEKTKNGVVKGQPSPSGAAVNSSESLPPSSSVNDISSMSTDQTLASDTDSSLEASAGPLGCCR
Chain of PAK4 (O96013 whole entry, species assumed): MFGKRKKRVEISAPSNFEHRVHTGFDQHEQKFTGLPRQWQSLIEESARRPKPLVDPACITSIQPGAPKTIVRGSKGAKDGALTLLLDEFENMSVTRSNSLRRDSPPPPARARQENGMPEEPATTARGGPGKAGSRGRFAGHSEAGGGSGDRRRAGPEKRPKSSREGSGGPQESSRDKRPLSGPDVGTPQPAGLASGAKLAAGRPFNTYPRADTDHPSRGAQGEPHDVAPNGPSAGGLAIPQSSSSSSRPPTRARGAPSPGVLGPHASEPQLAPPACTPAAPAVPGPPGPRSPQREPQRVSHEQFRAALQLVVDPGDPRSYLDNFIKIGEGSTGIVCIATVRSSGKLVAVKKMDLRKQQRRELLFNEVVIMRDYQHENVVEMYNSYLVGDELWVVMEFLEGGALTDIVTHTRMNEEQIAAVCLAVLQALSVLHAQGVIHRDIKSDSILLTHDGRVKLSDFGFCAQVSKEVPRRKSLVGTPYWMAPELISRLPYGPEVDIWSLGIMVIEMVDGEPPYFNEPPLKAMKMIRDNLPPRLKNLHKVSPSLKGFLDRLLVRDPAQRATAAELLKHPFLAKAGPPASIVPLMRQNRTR
Chain of ROCK 2 (O75116 whole entry, species assumed): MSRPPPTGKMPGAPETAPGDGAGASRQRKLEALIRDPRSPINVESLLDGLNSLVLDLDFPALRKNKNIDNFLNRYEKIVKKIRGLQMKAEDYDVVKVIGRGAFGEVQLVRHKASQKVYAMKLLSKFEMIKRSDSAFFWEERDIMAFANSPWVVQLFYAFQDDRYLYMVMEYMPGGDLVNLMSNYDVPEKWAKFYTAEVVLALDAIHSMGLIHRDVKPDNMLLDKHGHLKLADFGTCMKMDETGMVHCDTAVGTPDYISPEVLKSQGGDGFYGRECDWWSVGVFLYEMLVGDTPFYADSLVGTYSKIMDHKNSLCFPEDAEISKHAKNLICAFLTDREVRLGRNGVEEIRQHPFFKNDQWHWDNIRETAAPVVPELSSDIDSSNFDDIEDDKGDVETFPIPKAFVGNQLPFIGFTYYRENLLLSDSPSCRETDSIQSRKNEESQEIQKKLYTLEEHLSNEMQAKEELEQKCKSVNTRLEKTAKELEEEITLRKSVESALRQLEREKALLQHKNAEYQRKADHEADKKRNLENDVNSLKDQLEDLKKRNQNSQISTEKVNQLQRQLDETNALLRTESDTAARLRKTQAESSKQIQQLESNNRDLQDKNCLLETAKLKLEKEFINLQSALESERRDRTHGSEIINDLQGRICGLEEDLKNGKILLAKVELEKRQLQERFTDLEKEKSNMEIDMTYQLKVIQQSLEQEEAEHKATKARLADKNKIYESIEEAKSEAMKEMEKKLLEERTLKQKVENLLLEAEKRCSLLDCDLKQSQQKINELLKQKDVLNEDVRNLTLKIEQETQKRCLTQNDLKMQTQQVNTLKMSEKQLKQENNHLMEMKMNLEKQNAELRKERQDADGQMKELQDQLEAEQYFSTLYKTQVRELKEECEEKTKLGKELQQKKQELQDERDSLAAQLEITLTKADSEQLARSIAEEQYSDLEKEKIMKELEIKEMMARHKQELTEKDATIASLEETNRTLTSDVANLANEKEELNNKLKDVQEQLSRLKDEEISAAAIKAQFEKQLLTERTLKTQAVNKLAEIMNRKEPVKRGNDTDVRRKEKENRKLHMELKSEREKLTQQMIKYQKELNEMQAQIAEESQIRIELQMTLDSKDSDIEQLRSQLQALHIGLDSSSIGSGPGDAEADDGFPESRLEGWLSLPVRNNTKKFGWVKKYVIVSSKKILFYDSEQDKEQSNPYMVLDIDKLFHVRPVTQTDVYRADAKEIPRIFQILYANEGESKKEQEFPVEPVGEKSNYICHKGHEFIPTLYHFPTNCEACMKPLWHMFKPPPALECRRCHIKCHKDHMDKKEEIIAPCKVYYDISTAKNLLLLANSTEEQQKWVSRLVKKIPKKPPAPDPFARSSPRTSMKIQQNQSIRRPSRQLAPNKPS
Chain of PIM1 (P11309 whole entry, species assumed): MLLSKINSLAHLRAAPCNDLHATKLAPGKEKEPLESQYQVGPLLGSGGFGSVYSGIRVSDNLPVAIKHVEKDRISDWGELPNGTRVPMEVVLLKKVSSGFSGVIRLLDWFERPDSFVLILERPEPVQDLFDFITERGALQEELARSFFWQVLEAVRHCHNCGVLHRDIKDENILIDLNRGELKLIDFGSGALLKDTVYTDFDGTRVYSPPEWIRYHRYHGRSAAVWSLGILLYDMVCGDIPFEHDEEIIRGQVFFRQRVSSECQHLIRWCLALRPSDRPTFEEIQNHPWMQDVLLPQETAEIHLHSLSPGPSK
Chain of JNK1 (P45983 whole entry, species assumed): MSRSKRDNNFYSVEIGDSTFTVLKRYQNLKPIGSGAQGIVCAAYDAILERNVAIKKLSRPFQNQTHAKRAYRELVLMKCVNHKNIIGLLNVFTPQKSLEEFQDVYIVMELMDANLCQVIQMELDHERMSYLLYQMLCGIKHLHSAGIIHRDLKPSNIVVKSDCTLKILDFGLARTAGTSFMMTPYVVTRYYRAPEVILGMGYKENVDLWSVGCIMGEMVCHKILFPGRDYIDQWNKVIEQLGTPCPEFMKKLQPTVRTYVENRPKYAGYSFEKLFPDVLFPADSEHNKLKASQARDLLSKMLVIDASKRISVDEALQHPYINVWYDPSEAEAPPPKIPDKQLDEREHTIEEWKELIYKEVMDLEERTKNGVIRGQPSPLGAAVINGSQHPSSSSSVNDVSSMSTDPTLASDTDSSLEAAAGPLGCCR
Chain of ERK2 (P28482 whole entry, species assumed): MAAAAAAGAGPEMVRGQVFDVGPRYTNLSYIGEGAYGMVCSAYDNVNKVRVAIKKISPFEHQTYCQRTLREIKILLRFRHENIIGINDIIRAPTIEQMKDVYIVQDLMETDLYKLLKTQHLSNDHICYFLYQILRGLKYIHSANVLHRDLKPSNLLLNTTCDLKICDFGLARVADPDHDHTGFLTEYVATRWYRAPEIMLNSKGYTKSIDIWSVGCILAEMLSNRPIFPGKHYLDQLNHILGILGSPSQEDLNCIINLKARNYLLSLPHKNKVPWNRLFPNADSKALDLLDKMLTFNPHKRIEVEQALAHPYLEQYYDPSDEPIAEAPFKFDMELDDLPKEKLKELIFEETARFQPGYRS
Chain of RSK2 (P51812 whole entry, species assumed): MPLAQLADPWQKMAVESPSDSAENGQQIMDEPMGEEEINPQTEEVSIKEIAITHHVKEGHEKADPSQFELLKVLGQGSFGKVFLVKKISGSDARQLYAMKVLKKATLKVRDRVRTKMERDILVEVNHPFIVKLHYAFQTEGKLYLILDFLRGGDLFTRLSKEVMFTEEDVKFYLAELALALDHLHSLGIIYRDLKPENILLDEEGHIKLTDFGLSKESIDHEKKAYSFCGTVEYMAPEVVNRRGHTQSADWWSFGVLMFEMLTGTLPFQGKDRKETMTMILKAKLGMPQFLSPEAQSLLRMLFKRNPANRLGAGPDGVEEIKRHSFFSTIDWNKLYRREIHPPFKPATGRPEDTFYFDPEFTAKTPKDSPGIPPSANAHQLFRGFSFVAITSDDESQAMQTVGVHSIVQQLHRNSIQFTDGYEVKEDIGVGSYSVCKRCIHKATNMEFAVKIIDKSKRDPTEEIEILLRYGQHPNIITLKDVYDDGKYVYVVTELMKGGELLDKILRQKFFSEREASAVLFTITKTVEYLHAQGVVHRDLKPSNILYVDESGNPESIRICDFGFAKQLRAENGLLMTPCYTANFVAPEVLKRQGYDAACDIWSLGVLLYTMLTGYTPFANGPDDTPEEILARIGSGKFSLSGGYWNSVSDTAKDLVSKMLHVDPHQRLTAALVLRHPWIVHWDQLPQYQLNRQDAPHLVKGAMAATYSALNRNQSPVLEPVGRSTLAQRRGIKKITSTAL

Compound	residual kinase activity, ERK2 (ERK2)	residual kinase activity, JNK1 (JNK1)	residual kinase activity, JNK3 (JNK3)	residual kinase activity, p38b MAPK (p38b MAPK)	residual kinase activity, RSK2 (RSK2)	residual kinase activity, ROCK 2 (ROCK 2)	residual kinase activity, PKCa (PKCa)	residual kinase activity, PKD1 (PKD1)	residual kinase activity, LKB1 (LKB1)	residual kinase activity, CK2 (CK2)	residual kinase activity, NEK6 (NEK6)	residual kinase activity, PIM1 (PIM1)	residual kinase activity, PAK4 (PAK4)	remaining activity at 100 µM (ERK2) [%]	remaining activity at 100 µM (JNK1) [%]	remaining activity at 100 µM (JNK3) [%]	remaining activity at 100 µM (p38b MAPK) [%]	remaining activity at 100 µM (RSK2) [%]	remaining activity at 100 µM (ROCK 2) [%]	remaining activity at 100 µM (PKCa) [%]	other results
O=C(Nc1nc2ccc(O)cc2s1)c1ccccc1 [Compound 03-60]	82	88	48	76	34	11	97	47	68	16	97	35	35	–	–	–	–	–	–	–	–
CC(=O)Nc1nc2ccc(C(F)(F)F)cc2s1 [Compound 01-90]	–	–	–	–	–	–	–	–	–	92	–	–	–	102	104	76	82	92	80	101	remaining activity at 100 µM (PKD1): 119%; remaining activity at 100 µM (LKB1): 79%; remaining activity at 100 µM (NEK6): 107%; remaining activity at 100 µM (PIM1): 71%; remaining activity at 100 µM (PAK4): 67%
O=C(Nc1nc2ccc(O)cc2s1)c1ccncc1 [Compound 08-42]	73	99	65	86	62	43	81	63	65	50	75	59	69	–	–	–	–	–	–	–	–
O=C(Nc1nc2cc(O)ccc2s1)c1ccccn1 [Compound 03-13]	100	93	67	91	72	96	112	76	45	78	107	39	115	–	–	–	–	–	–	–	–
COc1ccc2sc(NC(C)=O)nc2c1 [Compound 03-21]	–	–	–	–	–	–	–	–	–	87	–	–	–	109	97	80	101	94	52	101	remaining activity at 100 µM (PKD1): 59%; remaining activity at 100 µM (LKB1): 93%; remaining activity at 100 µM (NEK6): 108%; remaining activity at 100 µM (PIM1): 8%; remaining activity at 100 µM (PAK4): 94%
CC(=O)Nc1nc2ccc(C#N)cc2s1 [Compound 01-94]	–	–	–	–	–	–	–	–	–	66	–	–	–	91	90	53	100	87	69	93	remaining activity at 100 µM (PKD1): 97%; remaining activity at 100 µM (LKB1): 35%; remaining activity at 100 µM (NEK6): 86%; remaining activity at 100 µM (PIM1): 26%; remaining activity at 100 µM (PAK4): 34%
CC(=O)Nc1nc2ccc(O)cc2s1 [Compound 01-71]	–	–	–	–	–	–	–	–	–	23	–	–	–	83	72	66	106	48	34	77	remaining activity at 100 µM (PKD1): 37%; remaining activity at 100 µM (LKB1): 17%; remaining activity at 100 µM (NEK6): 75%; remaining activity at 100 µM (PIM1): 19%; remaining activity at 100 µM (PAK4): 51%
O=C(Nc1nc2cc(O)ccc2s1)c1ccncc1 [Compound 03-11]	85	95	77	97	71	80	91	74	87	68	72	74	73	–	–	–	–	–	–	–	–
